In test [1] the target is T1, Peroxisome proliferator-activated receptor gamma (Homo sapiens) (UniProt P37231).
T1 sequence (whole entry): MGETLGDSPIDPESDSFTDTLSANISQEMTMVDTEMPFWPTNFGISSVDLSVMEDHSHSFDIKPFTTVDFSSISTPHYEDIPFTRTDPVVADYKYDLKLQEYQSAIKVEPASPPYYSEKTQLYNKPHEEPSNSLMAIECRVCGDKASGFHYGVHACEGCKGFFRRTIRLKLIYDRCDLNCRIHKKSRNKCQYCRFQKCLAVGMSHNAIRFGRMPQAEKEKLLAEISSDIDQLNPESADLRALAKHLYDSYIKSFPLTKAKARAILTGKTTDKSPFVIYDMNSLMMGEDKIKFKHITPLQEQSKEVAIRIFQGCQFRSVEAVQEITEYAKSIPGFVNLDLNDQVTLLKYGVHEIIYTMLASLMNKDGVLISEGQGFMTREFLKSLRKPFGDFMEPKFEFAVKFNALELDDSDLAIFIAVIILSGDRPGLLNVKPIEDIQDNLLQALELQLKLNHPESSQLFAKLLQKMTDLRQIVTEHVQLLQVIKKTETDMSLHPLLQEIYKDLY
As to the kind of experiment: Transactivation of Gal4-tagged PPARgamma ligand binding domain (unknown origin) expressed in COS7 cells at 30 uM measured after overnight incubation by luciferase reporter gene assay. Format: cell-based. The conditions noted are these: COS-7. In general terms: Reporter assays use an easily measured gene product as a stand-in for the process of interest.

Test [2] deals with T2, Bile acid receptor (Homo sapiens) (UniProt Q96RI1).
T2 sequence (whole entry): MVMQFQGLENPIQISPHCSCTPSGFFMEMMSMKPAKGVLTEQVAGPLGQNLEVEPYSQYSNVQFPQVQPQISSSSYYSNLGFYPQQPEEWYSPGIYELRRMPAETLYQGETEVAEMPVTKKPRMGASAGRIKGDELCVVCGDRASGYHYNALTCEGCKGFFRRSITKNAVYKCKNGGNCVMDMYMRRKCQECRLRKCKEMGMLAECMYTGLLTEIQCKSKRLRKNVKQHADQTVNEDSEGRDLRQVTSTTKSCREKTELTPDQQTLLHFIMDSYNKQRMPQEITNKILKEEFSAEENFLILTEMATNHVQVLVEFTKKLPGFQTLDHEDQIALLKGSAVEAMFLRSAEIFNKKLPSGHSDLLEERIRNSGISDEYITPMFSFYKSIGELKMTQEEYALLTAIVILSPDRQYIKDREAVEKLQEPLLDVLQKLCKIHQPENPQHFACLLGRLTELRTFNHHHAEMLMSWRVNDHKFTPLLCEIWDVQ
Description: Transactivation of human FXR expressed in human HeLa cells at 30 uM incubated for 24 hrs by luciferase reporter gene assay. The test is classed as cell-based.

The target of test [3] is T3, Peroxisome proliferator-activated receptor delta (Homo sapiens) (UniProt Q03181).
T3 sequence (whole entry): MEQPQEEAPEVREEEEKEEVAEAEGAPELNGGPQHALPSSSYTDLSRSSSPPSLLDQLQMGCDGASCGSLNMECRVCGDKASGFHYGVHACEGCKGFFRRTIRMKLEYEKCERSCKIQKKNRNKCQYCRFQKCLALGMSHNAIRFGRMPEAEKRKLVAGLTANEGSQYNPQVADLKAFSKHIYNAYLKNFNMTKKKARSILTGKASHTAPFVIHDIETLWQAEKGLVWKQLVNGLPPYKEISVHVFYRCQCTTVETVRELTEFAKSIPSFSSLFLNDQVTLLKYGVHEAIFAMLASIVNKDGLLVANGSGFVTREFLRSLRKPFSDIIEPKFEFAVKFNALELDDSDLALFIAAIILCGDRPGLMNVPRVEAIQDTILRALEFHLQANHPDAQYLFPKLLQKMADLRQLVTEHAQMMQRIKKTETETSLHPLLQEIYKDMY
Description: Transactivation of Gal4-tagged PPARdelta ligand binding domain (unknown origin) expressed in COS7 cells at 30 uM measured after overnight incubation by luciferase reporter gene assay. Format: cell-based. The conditions noted are these: COS-7.

The target of test [4] is T4, Peroxisome proliferator-activated receptor alpha (Homo sapiens) (UniProt Q07869).
T4 sequence (whole entry): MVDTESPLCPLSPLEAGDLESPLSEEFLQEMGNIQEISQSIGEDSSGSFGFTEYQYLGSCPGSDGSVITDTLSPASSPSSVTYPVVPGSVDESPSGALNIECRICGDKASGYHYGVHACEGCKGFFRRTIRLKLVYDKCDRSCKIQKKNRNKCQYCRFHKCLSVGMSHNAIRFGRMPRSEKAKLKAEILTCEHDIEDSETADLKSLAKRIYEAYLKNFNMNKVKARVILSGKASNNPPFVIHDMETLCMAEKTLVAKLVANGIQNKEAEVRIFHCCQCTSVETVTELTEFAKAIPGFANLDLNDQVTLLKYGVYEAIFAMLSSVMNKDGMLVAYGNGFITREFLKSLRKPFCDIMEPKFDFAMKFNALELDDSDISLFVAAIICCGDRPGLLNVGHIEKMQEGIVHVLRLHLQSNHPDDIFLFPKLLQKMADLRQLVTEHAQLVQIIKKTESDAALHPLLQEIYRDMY
Description: Transactivation of Gal4-tagged PPARalpha ligand binding domain (unknown origin) expressed in COS7 cells at 30 uM measured after overnight incubation by luciferase reporter gene assay. Format: cell-based. The conditions noted are these: COS-7.

In test [5] the target is T2, Bile acid receptor (Homo sapiens). As to the kind of experiment: Transactivation of human FXR expressed in human HeLa cells incubated for 24 hrs by luciferase reporter gene assay relative to GW4064. Format: cell-based.
The target of another test is T5, Bile acid receptor (Homo sapiens, UniProt Q96RI1).
T5 sequence (Q96RI1 whole entry): T2 sequence (whole entry)
Description: Transactivation of human FXR expressed in human HeLa cells incubated for 24 hrs by luciferase reporter gene assay. The test is classed as cell-based.

The target in test [6] is T3, Peroxisome proliferator-activated receptor delta (Homo sapiens). As to the kind of experiment: Transactivation of Gal4-tagged PPARdelta ligand binding domain (unknown origin) expressed in COS7 cells measured after overnight incubation by luciferase reporter gene assay relative to L165,041. Format: cell-based. The conditions noted are these: Chlorocebus aethiops; COS-7.

The target of test [7] is T6, Peroxisome proliferator-activated receptor gamma (Homo sapiens, UniProt P37231).
T6 sequence (P37231 whole entry): T1 sequence (whole entry)
Description: Transactivation of Gal4-tagged PPARgamma ligand binding domain (unknown origin) expressed in COS7 cells measured after overnight incubation by luciferase reporter gene assay. Format: cell-based, COS-7.

The target of test [8] is T7, Peroxisome proliferator-activated receptor alpha (Homo sapiens, UniProt Q07869).
T7 sequence (Q07869 whole entry): T4 sequence (whole entry)
As to the kind of experiment: Transactivation of Gal4-tagged PPARalpha ligand binding domain (unknown origin) expressed in COS7 cells measured after overnight incubation by luciferase reporter gene assay. Format: cell-based, COS-7.

In test [9] the target is T8, Peroxisome proliferator-activated receptor delta (Homo sapiens, UniProt Q03181).
T8 sequence (Q03181 whole entry): T3 sequence (whole entry)
Description: Transactivation of Gal4-tagged PPARdelta ligand binding domain (unknown origin) expressed in COS7 cells measured after overnight incubation by luciferase reporter gene assay. Format: cell-based, COS-7.

Test [10] concerns the target T1, Peroxisome proliferator-activated receptor gamma (Homo sapiens). Description: Transactivation of Gal4-tagged PPARgamma ligand binding domain (unknown origin) expressed in COS7 cells measured after overnight incubation by luciferase reporter gene assay relative to piaglitazone. Format: cell-based. The note with it: Chlorocebus aethiops; COS-7.
Test [11] concerns the target T4, Peroxisome proliferator-activated receptor alpha (Homo sapiens). As to the kind of experiment: Transactivation of Gal4-tagged PPARalpha ligand binding domain (unknown origin) expressed in COS7 cells at 10 uM measured after overnight incubation by luciferase reporter gene assay. Format: cell-based. The conditions noted are these: COS-7.

Structures are written as SMILES. Calls of active or inactive are those of the source. The rule behind the calls is not given here.

Turning to `CC(C)(C)c1ccc(C(=O)Nc2cccc(Cl)c2C(=O)Nc2cccc(C(=O)O)c2)cc1`, the result in [1], in test [2], in [3] and in test [4] was inactive.
As for `O=C(O)c1cccc(NC(=O)c2c(Cl)cccc2NC(=O)c2ccc(C(F)(F)F)cc2)c1`, the outcome in [1], in test [2], in test [3] and in test [4] was inactive.
As a reminder, the EC50 is the concentration needed to bring the measured effect to its halfway point. For the compound `CC(C)(C)c1ccc(C(=O)Nc2ccccc2C(=O)Nc2cccc(C(N)=O)c2)cc1`, the result in test [1], in test [3] and in test [4] was inactive. Moreover, the max activation in test [5] stood at 15%. The compound also returned a concentration giving a half-maximal response (EC50) on Bile acid receptor of 70 nM.
`O=C(O)CCc1cccc(NC(=O)c2ccccc2NC(=O)c2ccc(C(F)(F)F)cc2)c1`: the max activation in [6] came out at 120%; in test [5], 13%; in [10] it was 70%. In addition, the EC50 is 6.9 µM in [7], 5.9 µM in test [8], 6.8 µM in test [9] and 2300 nM at Bile acid receptor.
Take `O=C(O)CCCNC(=O)c1ccccc1NC(=O)C(c1ccccc1)c1ccccc1`: the result in test [1], in test [2], in test [3] and in [4] was inactive.
Regarding `CC(C)(C)c1ccc(C(=O)Nc2ccccc2C(=O)Nc2cc(C(=O)O)ccc2F)cc1`, the midpoint of the response in test [7], the EC50, lay at 5.8 µM. Also, the max activation in test [5] is 12%; in [11], 17%; in [10], 735%. For the same compound, in test [3], the outcome was inactive.
Take `O=C(O)c1cccc(NC(=O)c2ccc(Cl)cc2NC(=O)c2ccc(C(F)(F)F)cc2)c1`: the max activation in test [6] worked out at 16.5%; in test [5] it was 17.8%; in test [10], 420%. Besides, the concentration giving a half-maximal response (EC50) in test [7] was 8.7 µM; in test [8], 18.6 µM; in test [9], 3.4 µM; on Bile acid receptor, 2100 nM.
For the compound `CN(CCCC(=O)O)C(=O)c1ccccc1NC(=O)c1ccc2ccccc2c1`, the outcome in [1], in [2], in [3] and in [4] was inactive.
Consider `CC(C)(C)c1ccc(C(=O)Nc2c(Cl)cccc2C(=O)Nc2cccc(C(=O)O)c2)cc1`, for which the outcome in test [1], in [2], in [3] and in [4] was inactive.
The compound `O=C(O)CCCNC(=O)c1ccccc1NC(=O)c1cccc2ccccc12` displayed an EC50 in [7] of 41 µM. For the same compound, the outcome in [2] and in test [3] was inactive. Besides, the max activation in test [11] turned out to be 12%; in test [10] it was 397%.
Consider `N#Cc1ccc(C(=O)Nc2ccccc2C(=O)Nc2cccc(CC(=O)O)c2)cc1`, for which the outcome in [1], in test [2], in test [3] and in [4] was inactive.
As to `COc1ccc(C(=O)Nc2ccccc2C(=O)Nc2cccc(CC(=O)O)c2)cc1OC`, the outcome in test [1], in test [2], in [3] and in [4] was inactive.
For the compound `O=C(O)c1cccc(NC(=O)c2cc(Cl)ccc2NC(=O)c2ccc(C(F)(F)F)cc2)c1`, the max activation in [6] came out at 24%; in test [5], 16.9%; in test [11], 25%; in test [10], 415%. The EC50 in [7] is 4.7 µM; in test [9], 6.3 µM; on Bile acid receptor it was 3400 nM.
As to `CC(C)(C)c1ccc(C(=O)Nc2ccccc2C(=O)Nc2cccc(CCC(=O)O)c2)cc1`, the EC50 in [7] turned out to be 5 µM; in test [8], 5.4 µM; at Bile acid receptor it was 60 nM. Further, the figures for the max activation in test [5] and in test [10] were 22% and 175%, respectively. The outcome in test [3] was inactive.
In the case of `CSc1ccc(C(=O)Nc2ccccc2C(=O)Nc2cccc(CC(=O)O)c2)cc1`, the results for the max activation in [6], in test [5] and in test [10] were 133%, 16.9% and 200%, respectively. Besides, the EC50 came to 17.4 µM in test [7], 14.4 µM in test [8], 7.4 µM in test [9] and 8500 nM on Bile acid receptor.
For the compound `CC(C)(C)c1ccc(C(=O)Nc2ccccc2C(=O)Nc2cc(C(=O)O)ccc2Cl)cc1`, in [7], the response was half-maximal at 1.9 µM (EC50). Also, the max activation in test [5] is 16%; in test [11], 16%; in test [10] it was 154%. The result in test [3] was inactive.
Take `O=C(O)Cc1cccc(NC(=O)c2ccccc2NC(=O)c2ccc(C(F)(F)F)cc2)c1`: the figures for the max activation in [6], in test [5] and in test [10] were 58%, 14.8% and 161%, respectively. Besides, the EC50 in test [7] was 9.4 µM; in test [8] it was 5.4 µM; in test [9] it was 2.2 µM; at Bile acid receptor it was 2600 nM.
Consider `O=C(O)Cc1cccc(NC(=O)c2ccccc2NC(=O)c2ccc(SC(F)(F)F)cc2)c1`, for which the max activation in test [6] came to 64%; in test [5] it was 23%; in test [10], 158%. For the same compound, the EC50 is 4.4 µM in test [7], 1.3 µM in test [8], 2.3 µM in test [9] and 7000 nM on Bile acid receptor.
For `O=C(O)c1cccc(NC(=O)c2ccccc2NC(=O)c2cc(C(F)(F)F)cc(C(F)(F)F)c2)c1`, the midpoint of the response in [7], the EC50, lay at 11 µM. For the same compound, the outcome in test [2] and in [3] was inactive. Further, the figures for the max activation in test [11] and in test [10] were 15% and 114%, respectively.
